Tests used:
[1] = test system: delayed-type hypersensitivity model in mice; settings: disclosed in WO 2004/032824; cited from earlier work
[2] = test system: alopecia greata in C3H/HeJ mice; settings: for effective in treating the alopecia greata in C3H/HeJ mice: conclusion in words from Example 1; for Average score: hair amount and hair growth in biopsies from mustache, face, head, neck, back, stomach graded 1 (no hair) to 5 (full growth), averaged per group, day 93, negative control (PBS) 2.48; for Average score / Overall score: 25 mg/ml in PBS, topical; for Overall score: overall appearance graded on a scale of 1 (50% of mouse hairless) to 5 (full hair), group mean, 40 μl per cm^2 lesion, day 93 from the beginning of the treatment, negative control (PBS) 2.7
Method: The young mice will develop the disease subsequent to grafting.
Lesional grafts from old C3H/HeJ mice were grafted onto young C3H/HeJ mice. On day 30-40 post-graft the mice were randomized into groups with approximately the same degree of alopecia greata pathology.
Group 1: negative control, phosphate buffered saline (PBS).
Treatment was initiated on the day of randomization into groups. Mice were treated by providing 40 μl of solution per cm^2 lesion. The solution was evenly spread and was allowed to soak into the skin. Mice were observed twice weekly and the size of patches was measured and documented.
Treatment solutions were prepared freshly each day.
At the end of the study, skin biopsies were evaluated in a blinded manner. The hair amount and hair growth from biopsies from mice mustache, face, head, neck, back, and stomach were graded from 1 to 5. A rating of 1 represented no hair, and a rating of 5 represented full growth. These scores were calculated for each mouse and averaged, and the average for each group is shown below as “average score.”
In addition, the mice were graded based on their overall appearance on a scale of 1 to 5 for “overall score.”
Score 1=50% of mouse hairless.
Score 2=20-40% of mouse hairless.
Score 3=hairless patch covering up to 20% of mouse.
Score 4=thin hair, or local small hairless patch.
There were 7 mice in each of the test compound groups and 5 mice in the negative control group.
The scoring occurred on day 93 from the beginning of the treatment.

EAE model in rats = settings: disclosed in WO 2004/032824; cited from earlier work

| Compound | results in a delayed-type hypersensitivity model in mice [1] | effective in treating the alopecia greata in C3H/HeJ mice [2] | Average score [2] | Overall score [2] | results in an EAE model in rats (EAE model in rats) |
| --- | --- | --- | --- | --- | --- |
| CCCCCCCC/C=C\CCCCCCCCOC(=O)C(N)c1ccccc1.Cl (stereo not drawn) [compound 1, amino-phenyl-acetic acid octadec-(Z)-9-enyl ester HCl] | positive results | effective | 3.11 | 3.5 |  |
| CCCCCCCC/C=C\CCCCCCCCOC(=O)CN1CCNCC1.O=C(O)C(O)C(O)C(=O)O [compound 2] | positive results | effective | 2.91 | 3.5 | positive results |
